Tested on: Spontaneously hypertensive rats (SHR)
Experiment: Acute Efficacy in Spontaneously Hypertensive Rats (SHR), telemetry blood pressure
Type: in vivo, rat
From the text: Acute Efficacy in Spontaneously Hypertensive Rats (SHR)
Spontaneously hypertensive rats (SHR, male, Charles River) were implanted with DSI TA11PA-C40 telemetry device (Data Sciences, Inc., St. Paul, Minn.) under isoflurane or ketamine/metomidine anesthesia. The telemetry unit catheter was inserted into the descending aorta via the femoral artery and the telemetry device was implanted subcutaneously in the left flank area. Animals were allowed to recover from surgery for 14 days before the start of any studies. Blood pressure, heart rate, and activity signals from conscious, freely moving rats were recorded continuously for 30 seconds every 10 minutes. On the day prior to administration of compound, a single oral dose of vehicle (10% transcutol/20% Cremophor/70% water) was administered to all animals to establish baseline control data. The blood pressure lowering efficacy of compound (PO) or vehicle was evaluated following a single oral gavage. Data were collected as hourly averages, and changes in blood pressure were calculated by subtracting control baseline data on an hourly basis. Animals were maintained on normal diet with a 12 hour light-dark cycle.
Maximum peak decreases of systolic blood pressure (SBP) in SHR at a particular P.O. dose (mpk milligrams per kilogram) for the following representative compounds are provided.

Compound: CCn1cc(C2(C)C(=O)Nc3nc(-c4nn(CCC(F)(F)C(F)(F)F)c5ncccc45)nc(N)c32)nn1 (stereo not shown) [Example 173, 4-Amino-5-(1-Ethyl-1H-1,2,3-Triazol-4-yl)-5-Methyl-2-[1-(3,3,4,4,4-Pentafluorobutyl)-1H-Pyrazolo[3,4-B]Pyridin-3-yl]-5,7-Dihydro-6H-Pyrrolo[2,3-D]Pyrimidin-6-One]
- Maximum SBP reduction (dose 0.3 mpk): 66 ± 6 mmHg
- Maximum peak decrease of systolic blood pressure (SBP) in SHR, Category (single oral dose 0.3 mpk P.O.): C (Category C=SBP in SHRs>40 mmHg)

Compound: CC1(NCC2CC2)C(=O)Nc2nc(-c3nn(CCC(F)(F)C(F)(F)F)c4ncccc34)nc(N)c21 (stereo not shown) [Example 174, 4-Amino-5-[(Cyclopropylmethyl)Amino]-5-Methyl-2-[1-(3,3,4,4,4-Pentafluorobutyl)-1H-Pyrazolo[3,4-B]Pyridin-3-yl]-5,7-Dihydro-6H-Pyrrolo[2,3-D]Pyrimidin-6-One]
- Maximum peak decrease of systolic blood pressure (SBP) in SHR, Category (single oral dose 0.3 mpk P.O.): B (Category B=SBP in SHRs 25-40 mmHg)

Compound: CC1(CC#N)C(=O)Nc2nc(-c3nn(CCC(F)(F)C(F)(F)F)c4cc(Cl)ccc34)nc(N)c21 (stereo not shown) [Example 175, {4-Amino-2-[6-Chloro-1-(3,3,4,4,4-Pentafluorobutyl)-1H-Indazol-3-yl]-5-Methyl-6-Oxo-6,7-Dihydro-5H-Pyrrolo[2,3-D]Pyrimidin-5-yl}Acetonitrile]
- Maximum peak decrease of systolic blood pressure (SBP) in SHR, Category (single oral dose 0.3 mpk P.O.): B (Category B=SBP in SHRs 25-40 mmHg)

Compound: CC1(C(=O)NC2CC2)C(=O)Nc2nc(-c3nn(CCC(F)(F)C(F)(F)F)c4nc(Cl)ccc34)nc(N)c21 (stereo not shown) [Example 176, 4-Amino-2-(6-Chloro-1-(3,3,4,4,4-Pentafluorobutyl)-1H-Pyrazolo[3,4-B]Pyridin-3-yl)-N-Cyclopropyl-5-Methyl-6-Oxo-6,7-Dihydro-5H-Pyrrolo[2,3-D]Pyrimidine-5-Carboxamide]
- Maximum peak decrease of systolic blood pressure (SBP) in SHR, Category (single oral dose 0.1 mpk P.O.): C (Category C=SBP in SHRs>40 mmHg)

Compound: COc1ccc2c(-c3nc(N)c4c(n3)NC(=O)C4(C)C(=O)NC3CC3)nn(CCC(F)(F)C(F)(F)F)c2n1 (stereo not shown) [Example 178, 4-Amino-N-Cyclopropyl-2-(6-Methoxy-1-(3,3,4,4,4-Pentafluorobutyl)-1H-Pyrazolo[3,4-B]Pyridin-3-yl)-5-Methyl-6-Oxo-6,7-Dihydro-5H-Pyrrolo[2,3-D]Pyrimidine-5-Carboxamide]
- Maximum peak decrease of systolic blood pressure (SBP) in SHR, Category (single oral dose 0.1 mpk P.O.): A (Category A=SBP in SHRs<25 mmHg)

Compound: Cc1ccc2c(-c3nc(N)c4c(n3)NC(=O)C4(C)C(=O)NC3CC3)nn(CCC(F)(F)C(F)(F)F)c2n1 (stereo not shown) [Example 179, 4-Amino-N-Cyclopropyl-5-Methyl-2-(6-Methyl-1-(3,3,4,4,4-Pentafluorobutyl)-1H-Pyrazolo[3,4-B]Pyridin-3-yl)-6-Oxo-6,7-Dihydro-5H-Pyrrolo[2,3-D]Pyrimidine-5-Carboxamide]
- Maximum peak decrease of systolic blood pressure (SBP) in SHR, Category (single oral dose 0.1 mpk P.O.): B (Category B=SBP in SHRs 25-40 mmHg)

Compound: CC1(c2cn(CC3CC3)nn2)C(=O)Nc2nc(-c3nn(CCC(F)(F)F)c4ncccc34)nc(N)c21 (stereo not shown) [Example 180, 4-Amino-5-[1-(Cyclopropylmethyl)-1H-1,2,3-Triazol-4-yl]-5-Methyl-2-[1-(3,3,3-Trifluoropropyl)-1H-Pyrazolo[3,4-B]Pyridin-3-yl]-5,7-Dihydro-6H-Pyrrolo[2,3-D]Pyrimidin-6-One]
- Maximum SBP reduction (dose 0.3 mpk): 18 ± 5 mmHg
- Maximum peak decrease of systolic blood pressure (SBP) in SHR, Category (single oral dose 0.3 mpk P.O.): A (Category A=SBP in SHRs<25 mmHg)

Compound: CC1(C(=O)NC2CC2)C(=O)Nc2nc(-c3nn(CCC(F)(F)F)c4ncccc34)nc(N)c21 (stereo not shown) [Example 181, 4-Amino-N-Cyclopropyl-5-Methyl-6-Oxo-2-[1-(3,3,3-Trifluoropropyl)-1H-Pyrazolo[3,4-B]Pyridin-3-yl]-6,7-Dihydro-5H-Pyrrolo[2,3-D]Pyrimidine-5-Carboxamide]
- Maximum SBP reduction (dose 0.3 mpk): 49 ± 2 mmHg
- Maximum peak decrease of systolic blood pressure (SBP) in SHR, Category (single oral dose 0.3 mpk P.O.): B (Category B=SBP in SHRs 25-40 mmHg)

Compound: CC1(C(=O)Nc2cccnc2)C(=O)Nc2nc(-c3nn(CCC(F)(F)F)c4ncccc34)nc(N)c21 (stereo not shown) [Example 182, 4-Amino-5-Methyl-6-Oxo-N-(Pyridin-3-yl)-2-[1-(3,3,3-Trifluoropropyl)-1H-Pyrazolo[3,4-B]Pyridin-3-yl]-6,7-Dihydro-5H-Pyrrolo[2,3-D]Pyrimidine-5-Carboxamide]
- Maximum SBP reduction (dose 1.0 mpk): 46 ± 11 mmHg
- Maximum peak decrease of systolic blood pressure (SBP) in SHR, Category (single oral dose 1 mpk P.O.): B (Category B=SBP in SHRs 25-40 mmHg)

Compound: CC1(C(=O)NC2CC2)C(=O)Nc2nc(-c3nn(CCC(F)(F)F)c4nc(Cl)ccc34)nc(N)c21 (stereo not shown) [Example 183, 4-Amino-2-[6-Chloro-1-(3,3,3-Trifluoropropyl)-1H-Pyrazolo[3,4-B]Pyridin-3-yl]-N-Cyclopropyl-5-Methyl-6-Oxo-6,7-Dihydro-5H-Pyrrolo[2,3-D]Pyrimidine-5-Carboxamide]
- Maximum peak decrease of systolic blood pressure (SBP) in SHR, Category (single oral dose 0.3 mpk P.O.): C (Category C=SBP in SHRs>40 mmHg)

Compound: Cc1ccc2c(-c3nc(N)c4c(n3)NC(=O)C4(C)C(=O)NC3CC3)nn(CCC(F)(F)F)c2n1 (stereo not shown) [Example 184, 4-Amino-N-Cyclopropyll-5-Methyl-2-[6-Methyl-1-(3,3,3-Trifluoropropyl)-1H-Pyrazolo[3,4-B]Pyridin-3-yl]-6-Oxo-6,7-Dihydro-5H-Pyrrolo[2,3-D]Pyrimidine-5-Carboxamide]
- Maximum SBP reduction (dose 0.3 mpk): 19 ± 5 mmHg
- Maximum peak decrease of systolic blood pressure (SBP) in SHR, Category (single oral dose 0.3 mpk P.O.): A (Category A=SBP in SHRs<25 mmHg)

Compound: COc1ccc2c(-c3nc(N)c4c(n3)NC(=O)C4(C)C(=O)NC3CC3)nn(CCC(F)(F)F)c2n1 (stereo not shown) [Example 185, 4-Amino-N-Cyclopropyl-2-[6-Methoxy-1-(3,3,3-Trifluoropropyl)-1H-Pyrazolo[3,4-B]Pyridin-3-yl]-5-Methyl-6-Oxo-6,7-Dihydro-5H-Pyrrolo[2,3-D]Pyrimidine-5-Carboxamide]
- Maximum SBP reduction (dose 1.0 mpk): 43 ± 7 mmHg
- Maximum peak decrease of systolic blood pressure (SBP) in SHR, Category (single oral dose 1 mpk P.O.): C (Category C=SBP in SHRs>40 mmHg)

Compound: CNc1nc(-c2nn(CCC(F)(F)C(F)(F)F)c3ncccc23)nc2c1C(C)(c1ccccc1)C(=O)N2 (stereo not shown) [Example 186, 5-Methyl-4-(Methylamino)-2-[1-(3,3,4,4,4-Pentafluorobutyl)-1H-Pyrazolo[3,4-B]Pyridin-3-yl]-5-Phenyl-5,7-Dihydro-6H-Pyrrolo[2,3-D]Pyrimidin-6-One]
- Maximum peak decrease of systolic blood pressure (SBP) in SHR, Category (single oral dose 0.3 mpk P.O.): B (Category B=SBP in SHRs 25-40 mmHg)

Compound: CNc1nc(-c2nn(CCC(F)(F)C(F)(F)F)c3ncccc23)nc2c1C(C)(C(=O)NC1CC1)C(=O)N2 (stereo not shown) [Example 187, N-Cyclopropyl-5-Methyl-4-(Methylamino)-6-Oxo-2-[1-(3,3,4,4,4-Pentafluorobutyl)-1H-Pyrazolo[3,4-B]Pyridin-3-yl]-6,7-Dihydro-5H-Pyrrolo[2,3-D]Pyrimidine-5-Carboxamide]
- Maximum peak decrease of systolic blood pressure (SBP) in SHR, Category (single oral dose 0.3 mpk P.O.): B (Category B=SBP in SHRs 25-40 mmHg)

Compound: CNc1nc(-c2nn(CCC(F)(F)C(F)(F)F)c3cc(Cl)ccc23)nc2c1C(C)(c1ccccc1)C(=O)N2 (stereo not shown) [Example 188, 2-[6-Chloro-1-(3,3,4,4,4-Pentafluorobutyl)-1H-Indazol-3-yl]-5-Methyl-4-(Methylamino)-5-Phenyl-5,7-Dihydro-6H-Pyrrolo[2,3-D]Pyrimidin-6-One]
- Maximum peak decrease of systolic blood pressure (SBP) in SHR, Category (single oral dose 0.3 mpk P.O.): B (Category B=SBP in SHRs 25-40 mmHg)

Compound: CNc1nc(-c2nn(CCC(F)(F)C(F)(F)F)c3ncccc23)nc2c1C(C)(c1nnc(C)o1)C(=O)N2 (stereo not shown) [Example 189, 5-Methyl-4-(Methylamino)-5-(5-Methyl-1,3,4-Oxadiazol-2-yl)-2-[1-(3,3,4,4,4-Pentafluorobutyl)-1H-Pyrazolo [3,4-B]Pyridin-3-yl]-5,7-Dihydro-6H-Pyrrolo[2,3-D]Pyrimidin-6-One]
- Maximum peak decrease of systolic blood pressure (SBP) in SHR, Category (single oral dose 0.3 mpk P.O.): C (Category C=SBP in SHRs>40 mmHg)

From patent US9365574B2, “Soluble guanylate cyclase activators” (Merck Sharp & Dohme Corp., priority 2010, dated 2016)
